Assay results taken from ChEMBL document CHEMBL3867467, “Discovery of indazole ethers as novel, potent, non-steroidal glucocorticoid receptor modulators” (Bioorg Med Chem Lett, 2016).

Assays:
[1] = in vivo; conditions: Wistar, rat, po, 10 umol/kg
[2] = in vivo; conditions: Wistar, rat, iv, 1 umol/kg
[3] = in vivo; conditions: Lewis, rat, po
Description: AUC in Lewis rat model of SCW-induced joint inflammation at anti-inflammatory ED50 administered via oral gavage once daily for 8 days measured 24 hrs post last dose on day 8 by LC/MS/MS analysis

[4] = in vivo; conditions: Wistar, rat, po, 10 umol/kg; remark: listed apart in the source
[5] = in vitro; conditions: rat, plasma
Description: Fraction unbound in rat plasma at 10 uM

[6] = in vitro; conditions: human, plasma
Description: Fraction unbound in human plasma at 10 uM

[7] = in vivo; conditions: Wistar, rat, iv, 1 umol/kg; remark: listed apart in the source
Description: Volume of distribution at steady state in Wistar rat at 1 umol/kg, iv through bolus administration by LC/MS/MS analysis

[8] = in vivo; conditions: Wistar, rat, iv, 1 umol/kg; remark: listed apart in the source
Description: Clearance in Wistar rat at 1 umol/kg, iv through bolus administration by LC/MS/MS analysis

[9] = Intrinsic clearance in rat hepatocytes assessed per million cells; format: ADME, cell-based, Hepatocyte; conditions: read-out: CLH

Row | SMILES | AUC(0-inf) [1] [nM·h] | half-life [2] [h] | AUC [3] [nM·h] | bioavailability [4] [%] | fraction unbound at 10 µM [5] | fraction unbound at 10 µM [6] | Vd [7] [L/kg] | clearance [8] [L/h/kg] | hepatocyte CLint [9] [µL/min/1e6 cells]
1 | C[C@H](NC(=O)C(F)(F)F)[C@H](Oc1ccc2c(cnn2-c2ccc(F)cc2)c1)c1ccccc1 | 7100 | 11 | 80 | 53 | 0.00011 | 0.0001 | 14 | 1.14 | –
2 | COc1ccc([C@@H](Oc2ccc3c(cnn3-c3ccc(F)cc3)c2)[C@H](C)NC(=O)C2CC2)cn1 | 5900 | – | 35 | 66 | 0.0063 | 0.0015 | 15 | 1.68 | –
3 | C[C@]12C=CC(=O)C=C1CC[C@@H]1[C@@H]2[C@@H](O)C[C@@]2(C)[C@H]1CC[C@]2(O)C(=O)CO [PREDNISOLONE] | 350 | 0.27 | 590 | – | 0.31 | > 0.41 | 0.63 | 3.24 | 27
